Laboratory results: ChEMBL document CHEMBL1136597, “A structure-permeability study of small drug-like molecules” (Bioorg Med Chem Lett, 2003)

assay: Permeability directional ratio (PB-A/PA-B) in Caco-2 cell; format: ADME, cell-based; details: human, read-out: PDR

SMILES	efflux ratio
O=C(O)c1ccc(Cn2ccnc2)cc1	1
O=S(=O)(O)c1ccc(Cn2cnc3ccccc32)cc1	7
O=C(O)c1cccc(Cn2cnc3ccccc32)c1	3
c1ccc2c(c1)ncn2Cc1ccc(-c2nn[nH]n2)cc1	129
c1cnc(Cc2cccc(-c3nn[nH]n3)c2)nc1	20
c1ccc(-c2nn[nH]n2)c(Cn2cnc3ccccc32)c1	180
N=C(N)c1cccc(Cc2ncccn2)c1	3
c1cc(Cn2cnc3ccccc32)cc(-c2nn[nH]n2)c1	145

assay: Partition coefficient (logD7.4) measured using octanol and PBS at pH7.4; format: physicochemical; details: pH 7.4, read-out: LogD7.4

SMILES	logD
NS(=O)(=O)c1ccc(Cn2cnc3ccccc32)cc1	1.04
NCc1cccc(Cn2cccn2)c1	-0.77
NC(=O)c1cccc(Cc2ncccn2)c1	0.28
O=C(O)c1ccc(Cn2cccn2)cc1	-1.65
N#Cc1cccc(Cn2cccn2)c1	1.74
N#Cc1cccc(Cc2ncccn2)c1	1.46
NC(=O)c1cccc(Cn2cccn2)c1	0.71
O=C(O)c1ccc(Cc2ncccn2)cc1	-2.2
NCc1cccc(Cn2cnc3ccccc32)c1	0.21
NC(=O)c1cccc(Cn2ccnc2)c1	-0.01
N#Cc1cccc(Cn2ccnc2)c1	1.01
N#Cc1cccc(Cn2cnc3ccccc32)c1	2.47
O=C(O)c1cccc(Cn2cccn2)c1	-1.62
O=C(O)Cc1ccc(Cn2ccnc2)cc1	-2.37
c1ccc(Cn2cnc3ccccc32)cc1	2.91
c1cnc(Cc2cccc(-c3nn[nH]n3)c2)nc1	-1.28
O=C(O)Cc1ccc(Cn2cccn2)cc1	-1.8
O=C(O)c1cccc(Cc2ncccn2)c1	-1.98
NCc1cccc(Cc2ncccn2)c1	-1.11
NC(=O)c1cccc(Cn2cnc3ccccc32)c1	1.7
O=C(O)Cc1ccc(Cn2cnc3ccccc32)cc1	-1.13
c1cc(Cn2cnc3ccccc32)cc(-c2nn[nH]n2)c1	0.27
O=C(O)c1ccc(Cn2cnc3ccccc32)cc1	-0.61
c1ccc(Cn2ccnc2)cc1 [BENZYLIMIDAZOLE]	1.78

assay: Distribution coefficient of octanol and phosphate buffered saline at pH 7.4; format: physicochemical; details: read-out: Log Doct/PBS

SMILES	logD
O=C(O)c1ccc(Cn2ccnc2)cc1	-2.1
O=S(=O)(O)c1ccc(Cn2cnc3ccccc32)cc1	1.78
O=C(O)c1cccc(Cn2cnc3ccccc32)c1	-0.72
Nc1cccc(Cn2cnc3ccccc32)c1	1.92
CS(=O)(=O)Nc1cccc(Cn2cnc3ccccc32)c1	2.08
N=C(N)c1cccc(Cc2ncccn2)c1	-1.03
